Data from patent US4713374A, “Ganglioside derivatives” (priority 1984, dated 1987).

What follows are compounds tested on PC12 cells (assay: Neurite sprouting in PC12 cells). Settings: 10^-6 M, serum-free vehicle with 50 ng/ml NGF, third day; controls 21.5.
Assay type: cell-based
Method: The cells are then washed three times in a serum-free vehicle. […] This effect is evaluated by counting the number of cells with neurites at the third day.
With `CCCCCCCCCCCCC/C=C/[C@@H](O)[C@H](CO[C@@H]1O[C@H](CO)[C@@H](O[C@@H]2O[C@H](CO)[C@H](O[C@@H]3O[C@H](CO)[C@H](O)[C@H](O[C@@H]4O[C@H](CO)[C@H](O)[C@H](O)[C@H]4O)[C@H]3NC(C)=O)[C@H](O[C@]3(C(=O)NCCCN(C)C)C[C@H](O)[C@@H](NC(C)=O)[C@H]([C@H](O)[C@H](O)CO)O3)[C@H]2O)[C@H](O)[C@H]1O)NC(=O)CCCCCCCCCCCCCCCCC` [3-dimethylaminopropyl-1-amide of GM1, 3-dimethylaminopropyl-1-amide of the ganglioside GM1] the “% of the no. of cells with neurites at 3rd day” value (shortened to “% of the no. of cells”) was 37.3%. In the case of `CCCCCCCCCCCCC/C=C/[C@@H](O)[C@H](CO[C@@H]1O[C@H](CO)[C@@H](O[C@@H]2O[C@H](CO)[C@H](O[C@@H]3O[C@H](CO)[C@H](O)[C@H](O[C@@H]4O[C@H](CO)[C@H](O)[C@H](O)[C@H]4O)[C@H]3NC(C)=O)[C@H](O[C@]3(C(=O)NCCCCCCO)C[C@H](O)[C@@H](NC(C)=O)[C@H]([C@H](O)[C@H](O)CO)O3)[C@H]2O)[C@H](O)[C@H]1O)NC(=O)CCCCCCCCCCCCCCCCC` [6-hydroxyhexyl-1-amide of GM1, 6-hydroxyhexyl-1-amide of the ganglioside GM1], the “% of the no. of cells” value is reported as 36.4%. In the case of `C=CCOC(=O)[C@@]1(O[C@@H]2[C@@H](O)[C@H](O[C@H]3[C@H](O)[C@@H](O)[C@H](OC[C@H](NC(=O)CCCCCCCCCCCCCCCCC)[C@H](O)/C=C/CCCCCCCCCCCCC)O[C@@H]3CO)O[C@H](CO)[C@@H]2O[C@@H]2O[C@H](CO)[C@H](O)[C@H](O[C@@H]3O[C@H](CO)[C@H](O)[C@H](O)[C@H]3O)[C@H]2NC(C)=O)C[C@H](O)[C@@H](NC(C)=O)[C@H]([C@H](O)[C@H](O)CO)O1` [Allylic ester of GM1, Allyl ester of the ganglioside GM1], the “% of the no. of cells” value is reported as 31.5%. `CCCCCCCCCCCCC/C=C/[C@@H](OC(C)=O)[C@H](CO[C@@H]1O[C@H](COC(C)=O)[C@@H](O[C@@H]2O[C@H](COC(C)=O)[C@H](O[C@@H]3O[C@H](COC(C)=O)[C@H](OC(C)=O)[C@H](O[C@@H]4O[C@H](COC(C)=O)[C@H](OC(C)=O)[C@H](OC(C)=O)[C@H]4OC(C)=O)[C@H]3NC(C)=O)[C@H](O[C@]3(C(N)=O)C[C@H](OC(C)=O)[C@@H](NC(C)=O)[C@H]([C@H](OC(C)=O)[C@@H](COC(C)=O)OC(C)=O)O3)[C@H]2OC(C)=O)[C@H](OC(C)=O)[C@H]1OC(C)=O)NC(=O)CCCCCCCCCCCCCCCCC` [Amide of peracetylated GM1, Peracetylated derivative of the amide of the ganglioside GM1] was tested, and the “% of the no. of cells” value was 31.4%. In the case of `CCCCCCCCCCCCC/C=C/[C@@H](O)[C@H](CO[C@@H]1O[C@H](CO)[C@@H](O[C@@H]2O[C@H](CO)[C@H](O[C@@H]3O[C@H](CO)[C@H](O)[C@H](O[C@@H]4O[C@H](CO)[C@H](O)[C@H](O)[C@H]4O)[C@H]3NC(C)=O)[C@H](O[C@]3(C(=O)NCc4ccccc4)C[C@H](O)[C@@H](NC(C)=O)[C@H]([C@H](O)[C@H](O)CO)O3)[C@H]2O)[C@H](O)[C@H]1O)NC(=O)CCCCCCCCCCCCCCCCC` [Benzylamide of GM1, Benzylamide of the ganglioside GM1], the “% of the no. of cells” value is reported as 30.8%. With `CCCCCCCCCCCCC/C=C/[C@@H](O)[C@H](CO[C@@H]1O[C@H](CO)[C@@H](O[C@@H]2O[C@H](CO)[C@H](O[C@@H]3O[C@H](CO)[C@H](O)[C@H](O[C@@H]4O[C@H](CO)[C@H](O)[C@H](O)[C@H]4O)[C@H]3NC(C)=O)[C@H](O[C@]3(C(=O)OCc4ccccc4)C[C@H](O)[C@@H](NC(C)=O)[C@H]([C@H](O)[C@H](O)CO)O3)[C@H]2O)[C@H](O)[C@H]1O)NC(=O)CCCCCCCCCCCCCCCCC` [Benzylic ester of GM1, Benzyl ester of the ganglioside GM1] the “% of the no. of cells” value was 28.3%. With `CCCCCCCCCCCCC/C=C/[C@@H](O)[C@H](CO[C@@H]1O[C@H](CO)[C@@H](O[C@@H]2O[C@H](CO)[C@H](O[C@@H]3O[C@H](CO)[C@H](O)[C@H](O[C@@H]4O[C@H](CO)[C@H](O)[C@H](O)[C@H]4O)[C@H]3NC(C)=O)[C@H](O[C@]3(C(=O)N(CC)CC)C[C@H](O)[C@@H](NC(C)=O)[C@H]([C@H](O)[C@H](O)CO)O3)[C@H]2O)[C@H](O)[C@H]1O)NC(=O)CCCCCCCCCCCCCCCCC` [Diethylamide of GM1, Diethylamide of the ganglioside GM1] the “% of the no. of cells” value was 28.5%. For `CCCCCCCCCCCCC/C=C/[C@@H](O)[C@H](CO[C@@H]1O[C@H](CO)[C@@H](O[C@@H]2O[C@H](CO)[C@H](O[C@@H]3O[C@H](CO)[C@H](O)[C@H](O[C@@H]4O[C@H](CO)[C@H](O)[C@H](O)[C@H]4O)[C@H]3NC(C)=O)[C@H](O[C@]3(C(=O)N(C)C)C[C@H](O)[C@@H](NC(C)=O)[C@H]([C@H](O)[C@H](O)CO)O3)[C@H]2O)[C@H](O)[C@H]1O)NC(=O)CCCCCCCCCCCCCCCCC` [Dimethylamide of GM1, Dimethylamide of the ganglioside GM1], the “% of the no. of cells” value was 34.3%. With `CCCCCCCCCCCCC/C=C/[C@@H](O)[C@H](CO[C@@H]1O[C@H](CO)[C@@H](O[C@@H]2O[C@H](CO)[C@H](O[C@@H]3O[C@H](CO)[C@H](O)[C@H](O[C@@H]4O[C@H](CO)[C@H](O)[C@H](O)[C@H]4O)[C@H]3NC(C)=O)[C@H](O[C@]3(C(=O)NCCN(C)C)C[C@H](O)[C@@H](NC(C)=O)[C@H]([C@H](O)[C@H](O)CO)O3)[C@H]2O)[C@H](O)[C@H]1O)NC(=O)CCCCCCCCCCCCCCCCC` [Dimethylaminoethylamide of GM1, Dimethylaminoethylamide of the ganglioside GM1] the “% of the no. of cells” value was 34.8%. With `CCCCCCCCCCCCC/C=C/[C@@H](O)[C@H](CO[C@@H]1O[C@H](CO)[C@@H](O[C@@H]2O[C@H](CO)[C@H](O[C@@H]3O[C@H](CO)[C@H](O)[C@H](O[C@@H]4O[C@H](CO)[C@H](O)[C@H](O)[C@H]4O)[C@H]3NC(C)=O)[C@H](O[C@]3(C(=O)NCCO)C[C@H](O)[C@@H](NC(C)=O)[C@H]([C@H](O)[C@H](O)CO)O3)[C@H]2O)[C@H](O)[C@H]1O)NC(=O)CCCCCCCCCCCCCCCCC` [Ethanolamide of GM1, Ethanolamide of the ganglioside GM1] the “% of the no. of cells” value was 41.2%. `CCCCCCCCCCCCC/C=C/[C@@H](O)[C@H](CO[C@@H]1O[C@H](CO)[C@@H](O[C@@H]2O[C@H](CO)[C@H](O[C@@H]3O[C@H](CO)[C@H](O)[C@H](O[C@@H]4O[C@H](CO)[C@H](O)[C@H](O)[C@H]4O)[C@H]3NC(C)=O)[C@H](O[C@]3(C(=O)NCC)C[C@H](O)[C@@H](NC(C)=O)[C@H]([C@H](O)[C@H](O)CO)O3)[C@H]2O)[C@H](O)[C@H]1O)NC(=O)CCCCCCCCCCCCCCCCC` [Ethylamide of GM1, Ethylamide of the ganglioside GM1] was tested, and the “% of the no. of cells” value was 32.2%. `CCCCCCCCCCCCC/C=C/[C@@H](O)[C@H](CO[C@@H]1O[C@H](CO)[C@@H](O[C@@H]2O[C@H](CO)[C@H](O[C@@H]3O[C@H](CO)[C@H](O)[C@H](O[C@@H]4O[C@H](CO)[C@H](O)[C@H](O)[C@H]4O)[C@H]3NC(C)=O)[C@H](O[C@]3(C(=O)OCC)C[C@H](O)[C@@H](NC(C)=O)[C@H]([C@H](O)[C@H](O)CO)O3)[C@H]2O)[C@H](O)[C@H]1O)NC(=O)CCCCCCCCCCCCCCCCC` [Ethylic ester of GM1, Ethyl ester of the ganglioside GM1] was tested, and the “% of the no. of cells” value was 37.1%. In the case of `CCCCCCCCCCCCC/C=C/[C@@H](O)[C@H](CO[C@@H]1O[C@H](CO)[C@@H](O[C@@H]2O[C@H](CO)[C@H](O[C@@H]3O[C@H](CO)[C@H](O)[C@H](O[C@@H]4O[C@H](CO)[C@H](O)[C@H](O)[C@H]4O)[C@H]3NC(C)=O)[C@H](O[C@]3(C(=O)N(C)CC)C[C@H](O)[C@@H](NC(C)=O)[C@H]([C@H](O)[C@H](O)CO)O3)[C@H]2O)[C@H](O)[C@H]1O)NC(=O)CCCCCCCCCCCCCCCCC` [Ethylmethylamide of GM1, Ethylmethylamide of the ganglioside GM1], the “% of the no. of cells” value is reported as 35.3%. With `CCCCCCCCCCCCC/C=C/[C@@H](O)[C@H](CO[C@@H]1O[C@H](CO)[C@@H](O[C@@H]2O[C@H](CO)[C@H](O[C@@H]3O[C@H](CO)[C@H](O)[C@H](O[C@@H]4O[C@H](CO)[C@H](O)[C@H](O)[C@H]4O)[C@H]3NC(C)=O)[C@H](O[C@]3(C(=O)OCC(=O)OCC)C[C@H](O)[C@@H](NC(C)=O)[C@H]([C@H](O)[C@H](O)CO)O3)[C@H]2O)[C@H](O)[C@H]1O)NC(=O)CCCCCCCCCCCCCCCCC` [Etoxycarbonylmethylic ester of GM1, Ethoxycarbonylmethyl ester of the ganglioside GM1] the “% of the no. of cells” value was 27.3%. In the case of `CCCCCCCCCCCCC/C=C/[C@@H](O)[C@H](CO[C@@H]1O[C@H](CO)[C@@H](O[C@@H]2O[C@H](CO)[C@H](O[C@@H]3O[C@H](CO)[C@H](O)[C@H](O[C@@H]4O[C@H](CO)[C@H](O)[C@H](O)[C@H]4O)[C@H]3NC(C)=O)[C@H](O[C@]3(C(=O)NC(C)C)C[C@H](O)[C@@H](NC(C)=O)[C@H]([C@H](O)[C@H](O)CO)O3)[C@H]2O)[C@H](O)[C@H]1O)NC(=O)CCCCCCCCCCCCCCCCC` [Isopropylamide of GM1, Isopropylamide of the ganglioside GM1], the “% of the no. of cells” value is reported as 31.4%. For `CCCCCCCCCCCCC/C=C/[C@@H](O)[C@H](CO[C@@H]1O[C@H](CO)[C@@H](O[C@@H]2O[C@H](CO)[C@H](O[C@@H]3O[C@H](CO)[C@H](O)[C@H](O[C@@H]4O[C@H](CO)[C@H](O)[C@H](O)[C@H]4O)[C@H]3NC(C)=O)[C@H](O[C@]3(C(=O)OC(C)C)C[C@H](O)[C@@H](NC(C)=O)[C@H]([C@H](O)[C@H](O)CO)O3)[C@H]2O)[C@H](O)[C@H]1O)NC(=O)CCCCCCCCCCCCCCCCC` [Isopropylic ester of GM1, Isopropyl ester of the ganglioside GM1], the “% of the no. of cells” value was 37.0%.
